The numbers were not newly measured in US8563582B2, “3-aminocyclopentanecarboxamides as modulators of chemokine receptors” (priority 2004, dated 2013), which cites them from elsewhere.

One data set addresses rhesus macaque CCR5 (Macaca mulatta, UniProt P61813).
Another data set has as its target human CCR5 (Homo sapiens, UniProt P51681).
The subject of data set [1] is HIV-1. Particulars: U-87 astroglioma cells.
Data set [2] has as its system HIV-1.

Chain of human CCR5 (P51681 whole entry): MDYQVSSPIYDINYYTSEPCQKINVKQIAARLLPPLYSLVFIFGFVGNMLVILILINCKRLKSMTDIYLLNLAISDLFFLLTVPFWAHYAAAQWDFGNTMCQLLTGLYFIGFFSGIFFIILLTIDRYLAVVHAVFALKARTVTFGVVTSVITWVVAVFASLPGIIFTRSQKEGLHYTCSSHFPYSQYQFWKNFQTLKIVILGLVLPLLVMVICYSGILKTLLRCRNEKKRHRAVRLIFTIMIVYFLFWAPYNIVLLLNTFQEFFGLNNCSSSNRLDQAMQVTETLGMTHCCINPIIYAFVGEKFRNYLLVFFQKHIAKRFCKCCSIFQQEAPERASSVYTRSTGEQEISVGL

Turning to `Cc1ncnc(C)c1C(=O)N1CCC(C)(N2CCN([C@@H](C)c3ccc(C(F)(F)F)cc3)[C@@H](C)C2)CC1` [AD101], the “inhibition of HIV-1 entry via rhesus macaque CCR5” value on rhesus macaque CCR5 is listed as “inhibits”. At human CCR5, the “inhibition of entry of HIV-1 via human CCR5” value was “inhibits”.
With `CCO/N=C(\c1ccc(Br)cc1)C1CCN(C2(C)CCN(C(=O)c3c(C)cc[n+]([O-])c3C)CC2)CC1` [SCH-C], the “inhibition of HIV-1 infection mediated by CCR5” value in the data set with HIV-1 [1] is recorded as “specifically inhibits”. In the data set on HIV-1 [2], the “effect on infection of CXCR4-expressing cells” value is on record as “no effect”. The “inhibition of HIV-1 entry via rhesus macaque CCR5” value on rhesus macaque CCR5 is “does not”.
Turning to `Cc1ccc(-c2ccc3c(c2)C=C(C(=O)Nc2ccc(C[N+](C)(C)C4CCOCC4)cc2)CCC3)cc1.[Cl-]` [TAK-779], the anti-HIV activity result in the data set on HIV is “potent but variable”.
